Data set [1] deals with gastrointestinal transit. Put plainly: Murine gastrointestinal transit (GIT) assay, charcoal front. It is filed as in vivo, mice. How it is done:
In order to determine whether the peptides increase the rate of gastrointestinal transit, the peptides and controls were tested using a murine gastrointestinal transit (GIT) assay (Moon et al. Infection and Immunity 25:127, 1979). In this assay, charcoal, which can be readily visualized in the gastrointestinal tract is administered to mice after the administration of a test compound. The distance traveled by the charcoal is measured and expressed as a percentage of the total length of the […].
Mice were fasted with free access to water for 12 to 16 hours before the treatment with peptide or control buffer. The peptides were orally administered at 1 μg/kg-1 mg/kg of peptide in buffer (20 mM Tris pH 7.5) 7 minutes before being given an oral dose of 5% Activated Carbon (Aldrich 242276-250G). Control mice were administered buffer only before being given a dose of Activated Carbon. After 15 minutes, the mice were sacrificed and their intestines from the stomach to the cecum were dissected. The total length of the intestine as well as the distance traveled from the stomach to the charcoal front was measured for each animal and the results are expressed as the percent of the total length of the intestine traveled by the charcoal front. All results are reported as the average of 10 mice±standard deviation. A comparison of the distance traveled by the charcoal between the mice treated with peptide versus the mice treated with vehicle alone was performed using a Student's t test and a statistically significant difference was considered for P<0.05. P-values are calculated using a two-sided T-Test assuming unequal variances.
The identical experiment was performed to determine if SEQ ID NO:3 is effective in a chronic dosing treatment regimen. Briefly, 8 week old CD1 female mice are dosed orally once a day for 5 days with either SEQ ID NO:3 (0.06 mg/kg or 0.25 mg/kg in 20 mM Tris pH 7.5) or vehicle alone (20 mM Tris pH 7.5). On the 5th day, a GIT assay is performed identical to that above except 200 μl of a 10% charcoal solution is administered. […] The results are shown side by side with acute dosing (1 day).

Data set [2] concerns intestinal secretion. In words: Suckling mouse model of intestinal secretion (SuMi assay). It is filed as in vivo. To be noted: suckling mice; dose response; FIG. 5a/5b. How it is done:
In this model a test compound is administered to suckling mice that are between 7 and 9 days old. After the mice are sacrificed, the gastrointestinal tract from the stomach to the cecum is dissected (“guts”). The remains (“carcass”) as well as the guts are weighed and the ratio of guts to carcass weight is calculated. If the ratio is above 0.09, one can conclude that the test compound increases intestinal secretion. […] The effect of Zelnorm® was also studied.

Data set [3] in a line: Absorbability/bioavailability study in mice, serum detection by competitive ELISA. It is filed as in vivo, CD1 mice. To be noted: FIG. 10a. The method, then: To study the pharmacokinetics of SEQ ID NO:3, absorbability studies in mice were performed by administering SEQ ID NO:3 intravaneously via tail vein injection or orally by gavage to 8-week-old CD1 mice. Serum was collected from the animals at various time points and tested for the presence of SEQ ID NO:3 using a competitive enzyme-linked immunoabsorbent assay (Oxoid, ST EIA kit, Cat#TD0700). The assay utilized monoclonal antibodies against ST peptide (antibodies are provided in the Oxoid kit) and synthetically manufactured SEQ ID NO:3.
(In general: ELISA stands for enzyme-linked immunosorbent assay.)

In data set [4] the target is T1, GC-C receptors found in rat intestinal mucosa (Rattus norvegicus, UniProt P23897).
T1 sequence (P23897 23-1072): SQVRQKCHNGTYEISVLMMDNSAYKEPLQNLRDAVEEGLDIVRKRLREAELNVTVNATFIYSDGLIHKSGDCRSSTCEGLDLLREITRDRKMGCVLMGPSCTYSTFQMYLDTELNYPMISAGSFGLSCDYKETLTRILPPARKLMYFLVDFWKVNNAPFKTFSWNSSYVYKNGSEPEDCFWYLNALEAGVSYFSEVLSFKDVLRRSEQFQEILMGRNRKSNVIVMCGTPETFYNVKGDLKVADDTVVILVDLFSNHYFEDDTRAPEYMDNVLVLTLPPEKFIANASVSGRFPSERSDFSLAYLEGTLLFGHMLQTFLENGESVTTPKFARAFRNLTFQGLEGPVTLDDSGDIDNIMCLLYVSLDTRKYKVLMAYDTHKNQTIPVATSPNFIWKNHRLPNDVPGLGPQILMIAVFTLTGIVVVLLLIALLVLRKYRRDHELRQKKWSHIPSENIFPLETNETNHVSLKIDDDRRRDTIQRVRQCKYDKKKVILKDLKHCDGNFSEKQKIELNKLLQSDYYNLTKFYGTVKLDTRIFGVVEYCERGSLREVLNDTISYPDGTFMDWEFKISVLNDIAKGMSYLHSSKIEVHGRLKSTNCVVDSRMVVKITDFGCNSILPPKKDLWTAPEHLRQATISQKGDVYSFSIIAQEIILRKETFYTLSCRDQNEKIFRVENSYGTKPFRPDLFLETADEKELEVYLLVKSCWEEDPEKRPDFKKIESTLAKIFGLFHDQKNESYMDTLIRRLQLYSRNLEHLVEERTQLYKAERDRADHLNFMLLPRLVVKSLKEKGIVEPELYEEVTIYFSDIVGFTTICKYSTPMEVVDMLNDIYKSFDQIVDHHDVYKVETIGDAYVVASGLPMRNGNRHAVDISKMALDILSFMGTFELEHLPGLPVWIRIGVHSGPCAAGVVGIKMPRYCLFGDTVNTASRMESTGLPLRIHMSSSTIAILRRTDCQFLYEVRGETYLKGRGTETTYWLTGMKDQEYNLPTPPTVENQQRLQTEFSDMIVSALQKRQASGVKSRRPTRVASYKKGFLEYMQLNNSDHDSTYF
In words: biochemical.
Protocol: To determine the affinity of SEQ ID NO:3 for GC-C receptors found in rat intestinal mucosa, a competition binding assay was performed using rate intestinal epithelial cells. Epithelial cells from the small intestine of rats were obtained as described by Kessler et al. (J. Biol. Chem. 245: 5281-5288 (1970)). Briefly, animals were sacrificed and their abdominal cavities exposed. The small intestine was rinsed with 300 ml ice cold saline or PBS. 10 cm of the small intestine measured at 10 cm from the pylorus was removed and cut into 1 inch segments. Intestinal mucosa was extruded from the intestine by gentle pressure between a piece of parafilm and a P-1000 pipette tip. Intestinal epithelial cells were placed in 2 ml PBS and pipetted up and down with a 5 ml pipette to make a suspension of cells.
A competition binding assay was performed based on the method of Giannella et al. (Am. J. Physiol. 245: G492-G498) between [^125I] labeled SEQ ID NO:4 and SEQ ID NO:3. The assay mixture contained: 0.5 ml of DME with 20 mM HEPES-KOH pH 7.0, 0.9 mg of the cell suspension listed above, 21.4 fmol [^125I]-SEQ ID NO:4 (42.8 pM), and different concentrations of competitor SEQ ID NO:3 (0.01 to 1000 nM). […] The filters were washed with 5 ml ice-cold PBS and radioactivity was measured.

In data set [5] the test system is PBQ-induced writhing. Put plainly: Phenylbenzoquinone (PBQ)-induced writhing model.

Structures are written as SMILES. pKd: −log10 of the molar value. Positions of bridges follow the written chain, without caps; N, C: chain ends. Residues, ends and D or L forms follow the SMILES beside them.

The source of these data is patent US7772188B2, “Methods and compositions for the treatment of gastrointestinal disorders” (priority 2003, dated 2010).

As for `C[C@@H]1NC(=O)[C@@H]2CCCN2C(=O)[C@H](CC(N)=O)NC(=O)[C@@H]2CSSC[C@H](N)C(=O)N[C@H]3CSSC[C@H](NC1=O)C(=O)N[C@@H]([C@@H](C)O)C(=O)NCC(=O)N[C@H](C(=O)N[C@@H](Cc1ccc(O)cc1)C(=O)O)CSSC[C@H](NC(=O)[C@H](Cc1ccc(O)cc1)NC(=O)[C@H](CCC(=O)O)NC3=O)C(=O)N2` [SEQ ID NO:3, Cys Cys Glu Tyr Cys Cys Asn Pro Ala Cys Thr Gly Cys Tyr] (H-CCEYCCNPACTGCY-OH; disulfide 1-6, 2-10, 5-13; N-terminus and C-terminus assumed), in data set [1] (acute, oral, mice, SEQ ID NO:4 and Zelnorm 0.1 mg/kg, FIG. 3a/3b), the gastrointestinal transit rate entry is given as “increase gastrointestinal transit rate”. Besides, in data set [1] (acute, oral, mice, chemically synthesized peptides, FIG. 4b), the “intestinal transit rate versus Tris buffer or equivalent dose of Zelnorm” value is listed as “increase intestinal transit rates more than either Tris buffer alone or an equivalent dose of Zelnorm®”. The “effect in mouse gastrointestinal motility assay upon chronic dosing” value in data set [1] (oral once a day for 5 days, CD1 female mice, FIG. 4c) is recorded as “effective”. The “intestinal secretion (guts to carcass weight ratio)” value in data set [2] is on record as “increase intestinal secretion”. Moreover, the bioavailability in data set [3] (CD1, mouse, serum, oral versus IV) is less than 2.2%. Moreover, the systemic absorption entry in data set [3] (oral) was “minimally systemically absorbed”. The pKd in data set [4] was 8.35. Moreover, the “antinociceptive effect relative to indomethacin” value in data set [5] (mouse PBQ writhing, visceral pain model) is “antinociceptive effects in this visceral pain model comparable to the intermediate doses of indomethacin”. The “writhings compared to the vehicle control” value in data set [5] (mouse, oral, 2.5 mg/kg dose, FIG. 8b) is reported as “Significant reductions in writhings”.

One may read the bioavailability as dose-corrected exposure relative to a reference, in per cent. Read a low bioavailability as little systemic uptake. Broadly, the pKd is −log10 of the Kd, conventionally taken in molar units. Lower therefore signals a high Kd.
